Converted amounts (≈) assume the structure as drawn.
What was measured:
[1] = molecular target: T1, Human immunodeficiency virus type 1 reverse transcriptase (Human immunodeficiency virus 1, UniProt Q72547); test: The compound was evaluated as inhibitor of recombinant HIV-l reverse transcriptase
[2] = molecular target: T2, Avian myoblastosis virus polyprotein II (Avian myeloblastosis virus, UniProt Q86831); test: Inhibitor of avian myeloblastosis virus AMV reverse transcriptase
T2 sequence (Q86831 whole entry): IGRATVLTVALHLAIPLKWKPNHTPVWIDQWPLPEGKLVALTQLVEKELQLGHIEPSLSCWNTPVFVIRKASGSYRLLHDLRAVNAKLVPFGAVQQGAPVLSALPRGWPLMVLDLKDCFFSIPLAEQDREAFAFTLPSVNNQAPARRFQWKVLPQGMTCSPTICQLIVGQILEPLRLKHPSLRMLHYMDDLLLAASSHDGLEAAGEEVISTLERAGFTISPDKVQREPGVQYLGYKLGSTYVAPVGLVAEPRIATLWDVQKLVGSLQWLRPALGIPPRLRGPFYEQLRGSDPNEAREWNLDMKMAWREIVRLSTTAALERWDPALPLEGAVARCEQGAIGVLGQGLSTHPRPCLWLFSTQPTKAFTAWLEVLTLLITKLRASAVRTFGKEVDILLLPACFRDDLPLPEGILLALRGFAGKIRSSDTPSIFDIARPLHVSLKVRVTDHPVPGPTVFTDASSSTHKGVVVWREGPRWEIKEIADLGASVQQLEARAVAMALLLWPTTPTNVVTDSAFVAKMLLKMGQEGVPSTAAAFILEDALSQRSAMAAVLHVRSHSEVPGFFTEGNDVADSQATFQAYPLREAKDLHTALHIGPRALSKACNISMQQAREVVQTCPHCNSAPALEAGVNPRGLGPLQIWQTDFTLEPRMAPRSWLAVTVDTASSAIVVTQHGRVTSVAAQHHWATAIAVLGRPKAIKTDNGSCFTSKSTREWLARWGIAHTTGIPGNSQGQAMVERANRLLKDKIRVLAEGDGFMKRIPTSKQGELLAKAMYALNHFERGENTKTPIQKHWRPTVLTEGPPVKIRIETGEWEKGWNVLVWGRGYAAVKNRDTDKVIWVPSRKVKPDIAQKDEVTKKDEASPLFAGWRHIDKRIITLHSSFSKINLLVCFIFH

[3] = test system: Avian myeloblastosis virus; test: The compound was evaluated as inhibitor of avian myeloblastosis virus (AMV) reverse transcriptase; assay type: functional, organism-based
[4] = molecular target: T1, Human immunodeficiency virus type 1 reverse transcriptase; test: Compound was evaluated as inhibitor of recombinant HIV-l reverse transcriptase
[5] = test system: Avian myeloblastosis virus; test: Compound was evaluated as inhibitor of avian myeloblastosis virus (AMV) reverse transcriptase; assay type: functional, organism-based

Row | IC50 [3] | Structure (SMILES) | IC50 [1] | other results
1 | – | O=c1[nH]c(=O)n([C@H]2C[C@H](O)[C@@H](COP(=O)(O)C(F)(F)F)O2)cc1F | 47.6 µM | –
2 | – | Cc1cn(C2CC(N=[N+]=[N-])C(COP(=O)(O)C(F)F)O2)c(=O)[nH]c1=O (stereo not drawn) | 55.1 µM | –
3 | – | Nc1ncnc2c1ncn2C1O[C@H](COP(=O)(O)C(F)F)[C@@H](O)[C@H]1O (stereo partly drawn) | – | IC50 [2]: > 1050 µM
4 | 0.06 µg/mL | Cc1cn([C@H]2C[C@H](N=[N+]=[N-])[C@@H](CO[P@](=O)(O)O[P@](=O)(O)OP(=O)(O)O)O2)c(=O)[nH]c1=O [ZIDOVUDINE TRIPHOSPHATE] | 0.237 µM | –
5 | 150 µg/mL (≈ 378 µM) | Nc1nc(O)c2ncn(C3O[C@H](COP(=O)(O)C(F)F)[C@@H](O)[C@H]3O)c2n1 (stereo partly drawn) | – | –
6 | – | Cc1cn(C2CC(N=[N+]=[N-])C(COP(=O)(O)C(F)(F)F)O2)c(=O)[nH]c1=O (stereo not drawn) | 30.1 µM | –
7 | – | O=c1ccn(C2O[C@H](COP(=O)(O)C(F)F)[C@@H](O)[C@H]2O)c(=O)[nH]1 (stereo partly drawn) | – | IC50 [2]: > 1120 µM
8 | – | Cc1cn([C@H]2C[C@H](N=[N+]=[N-])[C@@H](CO)O2)c(=O)[nH]c1=O [ZIDOVUDINE] | – | IC50 [4]: 2990 µM; IC50 [5]: 600 µg/mL (≈ 2250 µM)
9 | – | Cc1cn(C2CC(N=[N+]=[N-])C(COP(=O)(O)CF)O2)c(=O)[nH]c1=O (stereo not drawn) | 110 µM | –

Row | Structure (SMILES) | IC50 [3] | IC50 [1] | other results
10 | Cc1cn([C@H]2C[C@H](N=[N+]=[N-])[C@@H](COP(=O)(O)O)O2)c(=O)[nH]c1=O [AZIDOTHYMIDINE MONOPHOSPHATE] | 900 µg/mL | > 2880 µM | –
